Test results from US10681909B2, “Herbicidal triazoles” (FMC Corporation, priority 2014, dated 2020).

Key:
pigweed [1] = test: Test D preemergence; assay type: in vivo, Amaranthus retroflexus; conditions: for Plant response rating: Pigweed: scale 0 to 100
Excerpt: (§1) Seeds of plant species selected from bluegrass (annual bluegrass, Poa annua), blackgrass (Alopecurus myosuroides), canarygrass (Phalaris minor), chickweed (common chickweed, Stellaria media), galium (catchweed bedstraw, Galium aparine), bromegrass, down (downy bromegrass, Bromus tectorum), Russian thistle (Salsola kali), field poppy (Papaver rhoeas), field violet (Viola arvensis), foxtail, green (green foxtail, Setaria viridis), deadnettle (henbit deadnettle, Lamium amplexicaule), ryegrass, Ital. (Italian ryegrass, Lolium multiflorum), kochia (Kochia scoparia), lambsquarters (Chenopodium album), oilseed rape (Brassica napus), pigweed (Amaranthus retroflexus), chamomile (scentless chamomile, Matricaria inodora), speedwell (bird's-eye speedwell, Veronica persica), barley, spring (spring barley, Hordeum vulgare), wheat, spring (spring wheat, Triticum aestivum), buckwheat, wild (wild buckwheat, Polygonum convolvulus), wild mustard (Sinapis arvensis), oat, wild (wild oat, Avena fatua), radish, wild (wild radish, Raphanus raphanistrum), […]), barley, winter (winter barley, Hordeum vulgare), and wheat, winter (winter wheat, Triticum aestivum) were planted into a silt loam soil and treated preemergence with test chemicals formulated in a non-phytotoxic solvent mixture which included a surfactant. At the same time, these species were planted in pots containing Sunshine Redi-Earth® planting medium comprising spaghnum peat moss, vermiculite, starter nutrients and dolomitic limestone and treated with postemergence applications of the test chemicals formulated in the same manner. Plants ranged in height from 2 to 18 cm (1- to 4-leaf stage). Treated plants and controls were maintained in a controlled growth environment for 14 to 21 d after which time all species were compared to controls and visually evaluated. […] A dash (-) response means no test result.

speedwell = test: Test D preemergence; assay type: in vivo, Veronica persica; conditions: for Plant response rating: Speedwell: scale 0 to 100
Excerpt: as §1

oat, wild = test: Test D preemergence; assay type: in vivo, Avena fatua; conditions: for Plant response rating: Oat, Wild: scale 0 to 100
Excerpt: as §1

blackgrass = test: Test A postemergence; assay type: in vivo, Alopecurus myosuroides; conditions: 0 to 100 scale (0 no effect, 100 complete control), approx. 10 d
Summary of the method: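 Seeds sown in loam soil–sand blend received a directed preemergence soil spray of test chemical in non-phytotoxic solvent with surfactant; postemergence plants, 2 to 10 cm at one- to two-leaf stage, were sprayed with the same formulation. Injury visually rated versus untreated controls after ~10 d in greenhouse, 0–100 scale.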

field violet = test: Test D preemergence; assay type: in vivo, Viola arvensis; conditions: for Plant response rating: Field Violet: scale 0 to 100
Excerpt: as §1

lambsquarters = test: Test D preemergence; assay type: in vivo, Chenopodium album; conditions: for Plant response rating: Lambsquarters: scale 0 to 100
Excerpt: as §1

waterhemp = test: Test C preemergence; assay type: in vivo, Amaranthus rudis; conditions: for Waterhemp plant response rating (0 to 100): Preemergence, visual rating after 13 to 15 d
Excerpt: (§2) Seeds of plant species selected from blackgrass (Alopecurus myosuroides), ryegrass, Italian (Italian ryegrass, Lolium multiflorum), wheat (winter wheat, Triticum aestivum), galium (catchweed bedstraw, Galium aparine), corn (Zea mays), crabgrass, large (large crabgrass, Digitaria sanguinalis), foxtail, giant, (giant foxtail, Setaria faberii), johnsongrass (Sorghum halepense), lambsquarters (Chenopodium album), morningglory (Ipomoea coccinea), nutsedge, yellow (yellow nutsedge, Cyperus esculentus), pigweed (Amaranthus retroflexus), ragweed (common ragweed, Ambrosia elatior), soybean (Glycine max), barnyardgrass (Echinochloa crus-galli), oilseed rape (Brassica napus), waterhemp (common waterhemp, Amaranthus rudis), and velvetleaf (Abutilon theophrasti) were planted into a blend of loam soil and sand and treated preemergence with test chemicals formulated in a non-phytotoxic solvent mixture which included a surfactant. At the same time, plants selected from these crop and weed species and also chickweed (common chickweed, Stellaria media), oat, wild (wild oat, Avena fatua), and kochia (Kochia scoparia), were planted in pots containing Sunshine Redi-Earth® planting medium comprising spaghnum peat moss, vermiculite, starter nutrients and dolomitic limestone and treated with postemergence applications of test chemicals formulated in the same manner. Plants ranged in height from 2 to 18 cm (1- to 4-leaf stage) for postemergence treatments. […] A dash (-) response means no test result.

kochia [2] = test: Test D preemergence; assay type: in vivo, Kochia scoparia; conditions: for Plant response rating: Kochia: scale 0 to 100
Excerpt: as §1

Russian thistle = test: Test D postemergence; assay type: in vivo, Salsola kali; conditions: scale 0 to 100
Excerpt: as §1

pigweed [3] = test: Test C preemergence; assay type: in vivo, Amaranthus retroflexus; conditions: for Plant response rating (scale of 0 to 100 where 0 is no effect and 100 is complete control): Pigweed, preemergence; for Pigweed plant response rating (0 to 100): Preemergence, visual rating after 13 to 15 d
Excerpt: as §2

windgrass [4] = test: Test D postemergence; assay type: in vivo, Apera spica-venti; conditions: scale 0 to 100
Excerpt: as §1

kochia [5] = test: Test D postemergence; assay type: in vivo, Kochia scoparia; conditions: scale 0 to 100
Excerpt: as §1

bromegrass, down = test: Test D postemergence; assay type: in vivo, Bromus tectorum; conditions: scale 0 to 100
Excerpt: as §1

windgrass [6] = test: Test D preemergence; assay type: in vivo, Apera spica-venti; conditions: for Plant response rating: Windgrass: scale 0 to 100
Excerpt: as §1

[7] = 16 g ai/ha, 0 is no effect, 100 is complete control

Fc1ccc(-c2nc(OCC(F)(F)F)n(Cc3ccnc(C(F)(F)F)c3)n2)cc1 [Compound 30]
Plant response rating (0 to 100), Pigweed (pigweed [1]; [7]): 100 | Plant response rating: Pigweed (pigweed [1]; 62 g ai/ha): 100 | Plant response rating: Pigweed (pigweed [1]; 125 g ai/ha): 100 | Plant response rating (0 to 100), Speedwell (speedwell; [7]): 100 | Plant response rating: Speedwell (speedwell; 62 g ai/ha): 100 | Plant response rating: Speedwell (speedwell; 125 g ai/ha): 100 | Plant response rating (0 to 100), Oat, Wild (oat, wild; [7]): 45 | Plant response rating: Oat, Wild (oat, wild; 62 g ai/ha): 70 | Plant response rating: Oat, Wild (oat, wild; 125 g ai/ha): 80 | Plant response rating, Blackgrass (blackgrass; 125 g ai/ha): 30 | Plant response rating, Blackgrass (blackgrass; 500 g ai/ha): 80 | Plant response rating (0 to 100), Field Violet (field violet; [7]): 100 | Plant response rating: Field Violet (field violet; 62 g ai/ha): 100 | Plant response rating: Field Violet (field violet; 125 g ai/ha): 100 | Plant response rating (0 to 100), Lambsquarters (lambsquarters; [7]): 85 | Plant response rating: Lambsquarters (lambsquarters; 62 g ai/ha): 95 | Plant response rating: Lambsquarters (lambsquarters; 125 g ai/ha): 95 | Waterhemp plant response rating (0 to 100) (waterhemp; 31 g ai/ha): 100 | Waterhemp plant response rating (0 to 100) (waterhemp; 62 g ai/ha): 100 | Plant response rating (scale of 0 to 100 where 0 is no effect and 100 is complete control) (waterhemp; Waterhemp, preemergence, 250 g ai/ha): 100 | Plant response rating (0 to 100), Kochia (kochia [2]; [7]): 85 | Plant response rating: Kochia (kochia [2]; 62 g ai/ha): 90 | Plant response rating: Kochia (kochia [2]; 125 g ai/ha): 95 | Plant response rating: Russian Thistle (Russian thistle; 16 g ai/ha): 80 | Plant response rating: Russian Thistle (Russian thistle; 31 g ai/ha): 90 | Plant response rating: Russian Thistle (Russian thistle; 62 g ai/ha): 90 | Plant response rating: Russian Thistle (Russian thistle; 125 g ai/ha): 90 | Plant response rating (scale of 0 to 100 where 0 is no effect and 100 is complete control) (pigweed [3]; 125 g ai/ha): 100 | Plant response rating (scale of 0 to 100 where 0 is no effect and 100 is complete control) (pigweed [3]; 250 g ai/ha): 100 | Pigweed plant response rating (0 to 100) (pigweed [3]; 31 g ai/ha): 100 | Pigweed plant response rating (0 to 100) (pigweed [3]; 62 g ai/ha): 100 | Plant response rating: Windgrass (windgrass [4]; 16 g ai/ha): 45 | Plant response rating: Windgrass (windgrass [4]; 31 g ai/ha): 65 | Plant response rating: Windgrass (windgrass [4]; 62 g ai/ha): 75 | Plant response rating: Windgrass (windgrass [4]; 125 g ai/ha): 85 | Plant response rating: Kochia (kochia [5]; 16 g ai/ha): 85 | Plant response rating: Kochia (kochia [5]; 31 g ai/ha): 90 | Plant response rating: Kochia (kochia [5]; 62 g ai/ha): 90 | Plant response rating: Kochia (kochia [5]; 125 g ai/ha): 95 | Plant response rating: Bromegrass, Down (bromegrass, down; 16 g ai/ha): 30 | Plant response rating: Bromegrass, Down (bromegrass, down; 31 g ai/ha): 45 | Plant response rating: Bromegrass, Down (bromegrass, down; 62 g ai/ha): 65 | Plant response rating: Bromegrass, Down (bromegrass, down; 125 g ai/ha): 65 | Plant response rating (0 to 100), Windgrass (windgrass [6]; [7]): 25 | Plant response rating: Windgrass (windgrass [6]; 62 g ai/ha): 100 | Plant response rating: Windgrass (windgrass [6]; 125 g ai/ha): 100
